Experimental findings from patent US12624039B2, “BTK inhibitors” (DIZAL (JIANGSU) PHARMACEUTICAL CO., LTD., priority 2020, dated 2026) are described below.

Like-named read-outs stand apart in the source and are kept apart here.

The nature of series [1]: Short oral absorption (SOA) assay in rats, brain penetration. Format: in vivo. The settings on record: rat; for Kp: brain, AUCbrain/AUCplasma. The procedure:
Short Oral Absorption (SOA) Assay in Rats.
(§1) A Short oral absorption (SOA) model is an in-vivo screening model to identify brain penetration of a compound. To evaluate the potential of a compound to cross the blood-brain barrier in rats, total brain-to-plasma ratio (Kp,brain) was measured AUCbrain/AUCplasma. CSF-to-plasma ratio (Kp,CSF) was determined by either AUCCSF/AUCplasma or the average of CSF-to-plasma ratios at available time points after oral administration, respectively. Free fractions of in biological matrix were determined by in vitro plasma and brain binding assay in a separate study. Kp,uu,brain and Kp,uu,CSF were calculated by the following equations: (1) Kp,uu,brain=Kp, brain×fu,brain/fu,plasma; (2) Kp,uu,CSF=Kp,CSF/fu,plasma.

For another series, the system named is TMD-8 cells. Put plainly: TMD-8 anti-proliferation assay. It is filed as cell-based. As to the method: TMD-8 Anti-Proliferation Assay
TMD-8 cells were prepared in RPMI1640 media containing 10% foetal bovine, and plated in 384 well plates at 1500 cells per well, The cells were incubated overnight at 37° C., 5% CO2. After incubation, compounds with different concentration were added to the assay plates and incubate cells for a further 72 hours at 37° C., 5% CO2. Following 72 hours incubation, 15 μl of CellTiter 96® AQueous One Solution Reagent was added to each well and the plates incubated at room temperature for 30 mins. Cell viability was determined using the CellTiter-Glo (Promega, USA). The CellTiter-Glo assay was performed according to the manufacturer's instructions, and luminescence was determined in a multi-label reader (Envision, PerkinElmer, USA). The data were processed in XLfit software.

The nature of series [2]: In vitro plasma and brain binding assay (free fractions). Format: in vitro ADME, rat. As to the method:
as §1

Setting [3] is: Kp,CSF/fu,plasma, read-out: Kp, uu CSF.
Setting [4] is: Kp,brain×fu,brain/fu,plasma, read-out: Kp, uu brain.
Setting [5] is: rat brain free fraction, read-out: Rat fu, br (%).
The mark [6] stands for this setting: rat plasma free fraction, read-out: Rat fu, pl (%).

Turning to `Nc1nccn2c(C3CCC(CO)OC3)nc(-c3ccc(Oc4ccccc4)cc3F)c12` (single isomer, unassigned) [Compound 2, Trans-(5-(8-amino-1-(2-fluoro-4-phenoxyphenyl)imidazo[1,5-a]pyrazin-3-yl)tetrahydro-2H-pyran-2-yl)methanol], the Kp – broadly, the ratio of the level in a tissue or fluid to that in plasma or blood – in series [1] turned out to be 1.35. The figures for the Kp uu in series [1] (setting [3]) and in series [1] (setting [4]) were 0.86 and 1.19, respectively. In addition, in the series on TMD-8 cells (72 hours), half-maximal inhibition (IC50) required 22.7 nM. Further, the fraction unbound in series [2] (setting [5]) was determined as 0.033; in series [2] (setting [6]), 0.038.
As for `Nc1nccn2c(C3CCC(CO)OC3)nc(-c3ccc(Oc4ccccc4)cc3F)c12` (single isomer, unassigned) [Compound 3, Trans-(5-(8-amino-1-(2-fluoro-4-phenoxyphenyl)imidazo[1,5-a]pyrazin-3-yl)tetrahydro-2H-pyran-2-yl)methanol], the midpoint of inhibition in the series on TMD-8 cells (72 hours), the IC50, lay at 106 nM.
Still for that read-out and setting: the same measure for `Nc1nccn2c(C3CCC(CO)OC3)nc(-c3ccc(Oc4ccccc4)c(F)c3F)c12` (single isomer, unassigned) [Compound 4, (5-(8-amino-1-(2,3-difluoro-4-phenoxyphenyl)imidazo[1,5-a]pyrazin-3-yl)tetrahydro-2H-pyran-2-yl)methanol]: 16.2 nM; for `Nc1nccn2c(C3CCC(CO)OC3)nc(-c3ccc(Oc4ccccc4)c(F)c3F)c12` (single isomer, unassigned) [Compound 5, (5-(8-amino-1-(2,3-difluoro-4-phenoxyphenyl)imidazo[1,5-a]pyrazin-3-yl)tetrahydro-2H-pyran-2-yl)methanol]: 102 nM; for `Nc1nccn2c(C3CCC(CO)OC3)nc(-c3ccc(Oc4cccc(F)c4F)cc3)c12` (single isomer, unassigned) [Compound 6, (5-(8-amino-1-(4-(2,3-difluorophenoxy)phenyl)imidazo[1,5-a]pyrazin-3-yl)tetrahydro-2H-pyran-2-yl)methanol]: 27.4 nM.
On the same count and under the same terms, the same measure for `Nc1nccn2c(C3CCC(CO)OC3)nc(-c3ccc(Oc4cccc(F)c4F)cc3)c12` (single isomer, unassigned) [Compound 7, (5-(8-amino-1-(4-(2,3-difluorophenoxy)phenyl)imidazo[1,5-a]pyrazin-3-yl)tetrahydro-2H-pyran-2-yl)methanol]: 219 nM; for `Nc1ncnn2c(C3CCC(CO)OC3)nc(-c3ccc(Oc4ccccc4)cc3F)c12` (single isomer, unassigned) [Compound 8, (5-(4-amino-5-(2-fluoro-4-phenoxyphenyl)imidazo[5,1-f][1,2,4]triazin-7-yl)tetrahydro-2H-pyran-2-yl)methanol]: 77 nM; for `Nc1ncnn2c(C3CCC(CO)OC3)nc(-c3ccc(Oc4ccccc4)cc3F)c12` (single isomer, unassigned) [Compound 9, (5-(4-amino-5-(2-fluoro-4-phenoxyphenyl)imidazo[1,5-a][1,2,4]triazin-7-yl)tetrahydro-2H-pyran-2-yl)methanol]: 160 nM.
In series [1], `Nc1ncnn2c(C3CCC(CO)OC3)nc(-c3ccc(Oc4ccccc4)cc3F)c12` (single isomer, unassigned) [Compound 10, Trans-(5-(4-amino-5-(2-fluoro-4-phenoxyphenyl)imidazo[5,1-f][1,2,4]triazin-7-yl)tetrahydro-2H-pyran-2-yl)methanol] gave a Kp of 0.38. The Kp uu in series [1] (setting [3]) is 0.56; in series [1] (setting [4]), 0.23. Half-maximal inhibition with TMD-8 cells (72 hours) (IC50) was put at 32.2 nM. Besides, the fraction unbound came to 0.022 in series [2] (setting [5]) and 0.037 in series [2] (setting [6]).
As to `Nc1ncnn2c(C3CCC(CO)OC3)nc(-c3ccc(Oc4ccccc4)cc3F)c12` (single isomer, unassigned) [Compound 11, Trans-(5-(4-amino-5-(2-fluoro-4-phenoxyphenyl)imidazo[5,1-f][1,2,4]triazin-7-yl)tetrahydro-2H-pyran-2-yl)methanol], in the series on TMD-8 cells (72 hours), the IC50 (as a rule, the concentration that gives 50% inhibition) came to 70.9 nM.
`Nc1nccn2c(C3CCC(CO)OC3)nc(-c3ccc(Oc4ccccc4)cc3)c12` (centres unmarked) [Compound 1, (5-(8-amino-1-(4-phenoxyphenyl)imidazo[1,5-a]pyrazin-3-yl)tetrahydro-2H-pyran-2-yl)methanol]: the midpoint of inhibition in the series with TMD-8 cells (Homo sapiens, TMD8, 72 h), the IC50, lay at 24.2 nM.
Turning to `Nc1ncnn2c(C3CCC(CO)OC3)nc(-c3ccc(Oc4cccc(F)c4F)cc3)c12` (centres unmarked) [Compound 14, (5-(4-amino-5-(4-(2,3-difluorophenoxy)phenyl)imidazo[5,1-f][1,2,4]triazin-7-yl)tetrahydro-2H-pyran-2-yl)methanol], the Kp in series [1] turned out to be 0.32. The Kp uu came out at 0.59 in series [1] (setting [3]) and 0.23 in series [1] (setting [4]). Also, the fraction unbound was 0.015 in series [2] (setting [5]) and 0.02 in series [2] (setting [6]).
